In the supplement of paper PMC10307832:

Experiments:
Assay in all cases: relative viability (nuclei count vs DMSO), 5 days (fraction); higher = more cells survive
NCI-H2009 = test system: NCI-H2009
Summary of the method: (§1)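 Relative viability divides the nuclei count in treated wells by that in vehicle wells. Lung cancer cell lines were seeded in 1536-well plates, dosed by pin tool the next day, and fixed and stained after 5 days in one step with final 0.05% Triton X-100, 1% formaldehyde and 1 ug/ml Hoechst. Dosing was a single drug or a fixed anchor-drug dose plus five library-drug doses (not always all listed) in √10 steps, and values are medians of duplicate plates imaged at 4×.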

NCI-H23 = test system: NCI-H23
Summary of the method: as §1

NCI-H2228 = test system: NCI-H2228
Summary of the method: as §1

NCI-H2087 = test system: NCI-H2087
Summary of the method: as §1

CAL-12T = test system: CAL-12T
Summary of the method: as §1

HCC-15 = test system: HCC-15
Summary of the method: as §1

NCI-H650 = test system: NCI-H650
Summary of the method: as §1

HCC-827 = test system: HCC-827
Summary of the method: as §1

LCLC-97TM1 = test system: LCLC-97TM1
Summary of the method: as §1

HARA = test system: HARA
Summary of the method: as §1

PC-3 [JPC-3] = test system: PC-3 [JPC-3]
Summary of the method: as §1

NCI-H661 = test system: NCI-H661
Summary of the method: as §1

NCI-H2405 = test system: NCI-H2405
Summary of the method: as §1

NCI-H1651 = test system: NCI-H1651
Summary of the method: as §1

LU99A = test system: LU99A
Summary of the method: as §1

NCI-H2170 = test system: NCI-H2170
Summary of the method: as §1

NCI-H1395 = test system: NCI-H1395
Summary of the method: as §1

COR-L 105 = test system: COR-L 105
Summary of the method: as §1

201T = test system: 201T
Summary of the method: as §1

UMC-11 = test system: UMC-11
Summary of the method: as §1

H3255 = test system: H3255
Summary of the method: as §1

SK-MES-1 = test system: SK-MES-1
Summary of the method: as §1

Structure (SMILES): Oc1nc(-c2ccc(C(F)(F)F)cc2)nc2c1CSCC2 [XAV939] + O=C(CCCCCCC(=O)Nc1ccccc1)NO [Vorinostat] (partner 1 µM)
- relative viability (NCI-H2009; first compound 0.08 µM): 0.754
- relative viability (NCI-H2009; first compound 0.253 µM): 0.709
- relative viability (NCI-H2009; first compound 0.8 µM): 0.743
- relative viability (NCI-H2009; first compound 2.53 µM): 0.536
- relative viability (NCI-H23; first compound 0.08 µM): 0.684
- relative viability (NCI-H23; first compound 0.8 µM): 0.66
- relative viability (NCI-H23; first compound 2.53 µM): 0.415
- relative viability (NCI-H2228; first compound 0.08 µM): 0.639
- relative viability (NCI-H2228; first compound 0.253 µM): 0.589
- relative viability (NCI-H2228; first compound 0.8 µM): 0.775
- relative viability (NCI-H2228; first compound 2.53 µM): 0.597
- relative viability (NCI-H2087; first compound 0.08 µM): 0.978
- relative viability (NCI-H2087; first compound 0.253 µM): 0.561
- relative viability (NCI-H2087; first compound 0.8 µM): 0.654
- relative viability (NCI-H2087; first compound 2.53 µM): 0.594
- relative viability (CAL-12T; first compound 0.08 µM): 0.984
- relative viability (CAL-12T; first compound 0.253 µM): 0.483
- relative viability (CAL-12T; first compound 0.8 µM): 0.823
- relative viability (CAL-12T; first compound 2.53 µM): 0.381
- relative viability (HCC-15; first compound 0.08 µM): 0.824
- relative viability (HCC-15; first compound 0.253 µM): 0.742
- relative viability (HCC-15; first compound 0.8 µM): 0.837
- relative viability (HCC-15; first compound 2.53 µM): 0.692
- relative viability (NCI-H650; first compound 0.08 µM): 0.461
- relative viability (NCI-H650; first compound 0.253 µM): 0.345
- relative viability (NCI-H650; first compound 0.8 µM): 0.506
- relative viability (NCI-H650; first compound 2.53 µM): 0.368
- relative viability (HCC-827; first compound 0.08 µM): 0.872
- relative viability (HCC-827; first compound 0.253 µM): 0.867
- relative viability (HCC-827; first compound 0.8 µM): 0.803
- relative viability (HCC-827; first compound 2.53 µM): 0.686
- relative viability (LCLC-97TM1; first compound 0.08 µM): 1.05
- relative viability (LCLC-97TM1; first compound 0.253 µM): 0.686
- relative viability (LCLC-97TM1; first compound 2.53 µM): 0.449
- relative viability (HARA; first compound 0.08 µM): 0.529
- relative viability (HARA; first compound 0.253 µM): 0.511
- relative viability (HARA; first compound 0.8 µM): 0.648
- relative viability (HARA; first compound 2.53 µM): 0.535
- relative viability (PC-3 [JPC-3]; first compound 0.253 µM): 0.76
- relative viability (PC-3 [JPC-3]; first compound 0.8 µM): 0.769
- relative viability (PC-3 [JPC-3]; first compound 2.53 µM): 0.816
- relative viability (NCI-H661; first compound 0.08 µM): 0.807
- relative viability (NCI-H661; first compound 0.253 µM): 0.674
- relative viability (NCI-H661; first compound 0.8 µM): 0.777
- relative viability (NCI-H661; first compound 2.53 µM): 0.777
- relative viability (NCI-H2405; first compound 0.08 µM): 0.639
- relative viability (NCI-H2405; first compound 0.253 µM): 0.922
- relative viability (NCI-H2405; first compound 0.8 µM): 0.913
- relative viability (NCI-H2405; first compound 2.53 µM): 0.925
- relative viability (NCI-H1651; first compound 0.08 µM): 0.546
- relative viability (NCI-H1651; first compound 0.253 µM): 0.529
- relative viability (NCI-H1651; first compound 0.8 µM): 0.555
- relative viability (NCI-H1651; first compound 2.53 µM): 0.512
- relative viability (LU99A; first compound 0.08 µM): 0.454
- relative viability (LU99A; first compound 0.253 µM): 0.598
- relative viability (LU99A; first compound 0.8 µM): 0.507
- relative viability (LU99A; first compound 2.53 µM): 0.43
- relative viability (NCI-H2170; first compound 0.08 µM): 0.86
- relative viability (NCI-H2170; first compound 0.253 µM): 0.614
- relative viability (NCI-H2170; first compound 0.8 µM): 0.739
- relative viability (NCI-H2170; first compound 2.53 µM): 0.543
- relative viability (NCI-H1395; first compound 0.08 µM): 0.746
- relative viability (NCI-H1395; first compound 0.253 µM): 0.774
- relative viability (NCI-H1395; first compound 0.8 µM): 0.725
- relative viability (NCI-H1395; first compound 2.53 µM): 0.849
- relative viability (COR-L 105; first compound 0.08 µM): 0.85
- relative viability (COR-L 105; first compound 0.253 µM): 0.659
- relative viability (COR-L 105; first compound 0.8 µM): 0.719
- relative viability (COR-L 105; first compound 2.53 µM): 0.65
- relative viability (201T; first compound 0.08 µM): 1.07
- relative viability (201T; first compound 0.253 µM): 0.794
- relative viability (201T; first compound 0.8 µM): 0.832
- relative viability (201T; first compound 2.53 µM): 0.779
- relative viability (UMC-11; first compound 0.08 µM): 0.364
- relative viability (UMC-11; first compound 0.253 µM): 0.267
- relative viability (UMC-11; first compound 0.8 µM): 0.305
- relative viability (UMC-11; first compound 2.53 µM): 0.274
- relative viability (H3255; first compound 0.08 µM): 0.809
- relative viability (H3255; first compound 0.253 µM): 0.692
- relative viability (H3255; first compound 0.8 µM): 0.648
- relative viability (H3255; first compound 2.53 µM): 0.712
- relative viability (SK-MES-1; first compound 0.08 µM): 1.1
- relative viability (SK-MES-1; first compound 0.253 µM): 0.954
- relative viability (SK-MES-1; first compound 0.8 µM): 0.92
- relative viability (SK-MES-1; first compound 2.53 µM): 0.831
